Assay results taken from ChEMBL document CHEMBL1139278 (2009).

Tests used:
Format in all cases: functional
Moraxella catarrhalis = test: Antimicrobial activity against Moraxella catarrhalis K1209 by NCCLS method
Streptococcus pneumoniae [1] = test: Antimicrobial activity against penicillin-susceptible Streptococcus pneumoniae ATCC 49619 by NCCLS method
Staphylococcus aureus [2] = test: Antimicrobial activity against methicillin-susceptible Staphylococcus aureus infected iv dosed mouse assessed as survival rate after 1 hr of infection
Staphylococcus aureus [3] = test: Antimicrobial activity against methicillin-susceptible Staphylococcus aureus Smith by NCCLS method
Staphylococcus aureus [4] = test: Antimicrobial activity against methicillin-resistant Staphylococcus aureus KMP9
Streptococcus pneumoniae [5] = test: Antimicrobial activity against penicillin-resistant Streptococcus pneumoniae KT2524 by NCCLS method
Haemophilus influenzae = test: Antimicrobial activity against Haemophilus influenzae TH13 by NCCLS method
Enterococcus faecium = test: Antimicrobial activity against vancomycin-resistant Enterococcus faecium KU1778 by NCCLS method
Streptococcus pyogenes = test: Antimicrobial activity against Streptococcus pyogenes ATCC 112344 by NCCLS method

Structure (SMILES) | MIC (Moraxella catarrhalis) | MIC (Streptococcus pneumoniae [1]) | ED50 (Staphylococcus aureus [2]) | MIC (Staphylococcus aureus [3]) | MIC (Staphylococcus aureus [4]) | MIC (Streptococcus pneumoniae [5]) | MIC (Haemophilus influenzae) | MIC (Enterococcus faecium) | MIC (Streptococcus pyogenes)
C=C[C@]1(C)C[C@@H](OC(=O)CN2CCN(C(=O)CCn3cnc4c(N5CCC(N)C5)ncnc43)CC2C)[C@]2(C)[C@H](C)CC[C@]3(CCC(=O)[C@@H]32)[C@@H](C)[C@@H]1O.Cl.Cl (some centres undefined) | 0.125 µg/mL | 0.063 µg/mL | 1.42 mg/kg | 0.25 µg/mL | 0.5 µg/mL | 0.063 µg/mL | 2 µg/mL | 0.125 µg/mL | 0.032 µg/mL
C=C[C@]1(C)C[C@@H](OC(=O)CN2CCN(C(=O)CCn3cnc4c(N5CCC(N)C5)ncnc43)C[C@H]2C)[C@]2(C)[C@H](C)CC[C@]3(CCC(=O)[C@@H]32)[C@@H](C)[C@@H]1O.Cl.Cl (some centres undefined) | 0.063 µg/mL | 0.032 µg/mL | 1.42 mg/kg | 0.25 µg/mL | 0.5 µg/mL | 0.063 µg/mL | 2 µg/mL | 0.063 µg/mL | 0.016 µg/mL
C=C[C@]1(C)C[C@@H](OC(=O)CN2CC(C)N(C(=O)CCn3cnc4c(N5CCC(N)C5)ncnc43)CC2C)[C@]2(C)[C@H](C)CC[C@]3(CCC(=O)[C@@H]32)[C@@H](C)[C@@H]1O.Cl.Cl (some centres undefined) | 0.125 µg/mL | 0.063 µg/mL | 3.13 mg/kg | 0.25 µg/mL | 0.25 µg/mL | 0.063 µg/mL | 4 µg/mL | 0.125 µg/mL | 0.032 µg/mL
C=C[C@]1(C)C[C@@H](OC(=O)CN2CCN(C(=O)CCn3cnc4c(N5CCC(N)C5)ncnc43)C(C)(C)C2)[C@]2(C)[C@H](C)CC[C@]3(CCC(=O)[C@@H]32)[C@@H](C)[C@@H]1O.Cl.Cl (some centres undefined) | 0.032 µg/mL | 0.032 µg/mL | 2.32 mg/kg | 0.125 µg/mL | 0.125 µg/mL | 0.032 µg/mL | 4 µg/mL | 0.063 µg/mL | 0.016 µg/mL
C=C[C@]1(C)C[C@@H](OC(=O)CN2CC(C)N(C(=O)CCn3cnc4c(N5CCC(N)C5)ncnc43)C(C)C2)[C@]2(C)[C@H](C)CC[C@]3(CCC(=O)[C@@H]32)[C@@H](C)[C@@H]1O.Cl.Cl (some centres undefined) | 0.063 µg/mL | 0.016 µg/mL | > 3.13 mg/kg | 0.125 µg/mL | 0.125 µg/mL | 0.016 µg/mL | 4 µg/mL | 0.063 µg/mL | 0.016 µg/mL
C=C[C@]1(C)C[C@@H](OC(=O)CN2CCN(C(=O)CCn3cnc4c(N5CCC(N)C5)ncnc43)C[C@@H]2C)[C@]2(C)[C@H](C)CC[C@]3(CCC(=O)[C@@H]32)[C@@H](C)[C@@H]1O.Cl (some centres undefined) | 0.125 µg/mL | 0.125 µg/mL | 1.28 mg/kg | 0.25 µg/mL | 0.5 µg/mL | 0.063 µg/mL | 4 µg/mL | 0.125 µg/mL | 0.032 µg/mL
